The source of these data is patent US12497370B2, “Isoxazoline derivatives” (Elanco Tiergesundheit AG, priority 2019, dated 2025).

Structures are written as SMILES.

This assay concerns fleas (Ctenocephalides felis). The experiment in a line: In vitro evaluation of ingestion activity against fleas. The note with it: flea ingestion test, compound in organic bovine blood (0.5% DMSO), adult fleas, percent mortality between 2 h and 48 h post infestation, read-out: EC50 (the source's name). As for the experimental part:
In Vitro Evaluation of Ingestion Activity Against Fleas (Ctenocephalides felis)
For flea ingestion tests, serial dilutions of the compound stock were performed using DMSO to achieve the desired range for EC50 and EC90 determination. An aliquot of each compound dilution was added to organic bovine blood with a final DMSO concentration of 0.5% and placed in an artificial feeding container. Fipronil is included to serve as a positive control. Ten newly emerged unfed adult fleas, 0-7 days old Ctenocephalides felis, from a laboratory colony, were aspirated into each vial or cage. The cages for flea ingestion assays were held in a temperature-controlled artificial feeding apparatus to allow continual access to organic bovine blood containing the desired concentration of compound. Fresh aliquots of compound-spiked bovine blood were provided daily for the duration of the study. Fleas were evaluated for percent mortality at various time points between 2 h and 48 h post infestation. Fleas showing normal movement and/or jumping ability were considered viable and those showing no movement after tapping the vials were scored as dead.
In the case of `Cc1cc(C2=NOC(c3cc(C(F)(F)F)cc(Cl)c3F)(C(F)(F)F)C2)ccc1C(=O)NCc1nc(C#N)cs1` (racemic) [Example 3.23, N-[(4-cyanothiazol-2-yl)methyl]-2-methyl-4-[(5RS)-5-[3-chloro-2-fluoro-5-(trifluoromethyl)phenyl]-5-(trifluoromethyl)-4H-isoxazol-3-yl]benzamide], the LC50 was less than 1 µg/mL.
Under `Cc1cc(C2=NOC(c3cc(C(F)(F)F)cc(Cl)c3F)(C(F)(F)F)C2)ccc1C(=O)NC1(C)CSC1` (single isomer, unassigned) [Example 3.93, 2-methyl-N-(3-methylthietan-3-yl)-4-[(5R or S)-5-[3-chloro-2-fluoro-5-(trifluoromethyl)phenyl]-5-(trifluoromethyl)-4H-isoxazol-3-yl]benzamide] stands less than 1 µg/mL; under `Cc1cc(C2=NOC(c3cc(C(F)(F)F)cc(Cl)c3F)(C(F)(F)F)C2)ccc1C(=O)Nc1cnn(CC#N)c1` (single isomer, unassigned) [Example 3.75, N-[1-(cyanomethyl)pyrazol-4-yl]-2-methyl-4-[(5S or R)-5-[3-chloro-2-fluoro-5-(trifluoromethyl)phenyl]-5-(trifluoromethyl)-4H-isoxazol-3-yl]benzamide], less than 3 µg/mL.
With `Cc1cc(C2=NOC(c3cc(C(F)(F)F)cc(Cl)c3F)(C(F)(F)F)C2)ccc1C(=O)NC1CSC1` (single isomer, unassigned) [Example 3.51, 2-methyl-4-[(5R or S)-5-[3-chloro-2-fluoro-5-(trifluoromethyl)phenyl]-5-(trifluoromethyl)-4H-isoxazol-3-yl]-N-(thietan-3-yl)benzamide] the figure was less than 1 µg/mL.
Under `Cc1cc(C2=NOC(c3cc(C(F)(F)F)cc(Cl)c3F)(C(F)(F)F)C2)ccc1C(=O)N[C@@H]1CCN(CC#N)C1` (single isomer, unassigned) [Example 3.76, 4-[(5S or R)-5-[3-chloro-2-fluoro-5-(trifluoromethyl)phenyl]-5-(trifluoromethyl)-4H-isoxazol-3-yl]-N-[(3R)-1-(cyanomethyl)pyrrolidin-3-yl]-2-methyl-benzamide] stands less than 1 µg/mL; under `Cc1cc(C2=NO[C@@](c3cc(C(F)(F)F)cc(Cl)c3F)(C(F)(F)F)C2)ccc1C(=O)N[C@@H]1CC[C@H](C#N)C1` (single isomer, unassigned) [Example 3.90, 4-[(5S or R)-5-[3-chloro-2-fluoro-5-(trifluoromethyl)phenyl]-5-(trifluoromethyl)-4H-isoxazol-3-yl]-N-[cis-3-cyanocyclopentyl]-2-methyl-benzamide], less than 1 µg/mL.
Consider `Cc1cc(C2=NOC(c3cc(C(F)(F)F)cc(Cl)c3F)(C(F)(F)F)C2)ccc1C(=O)N[C@@H]1CNC1=O` (single isomer, unassigned) [Example 3.53, 4-[(5R or S)-5-[3-chloro-2-fluoro-5-(trifluoromethyl)phenyl]-5-(trifluoromethyl)-4H-isoxazol-3-yl]-2-methyl-N-[(3R)-2-oxoazetidin-3-yl]benzamide], for which the LC50 is less than 1 µg/mL.
Under `CCN1C[C@@H](NC(=O)c2ccc(C3=NOC(c4cc(C(F)(F)F)cc(Cl)c4F)(C(F)(F)F)C3)cc2C)CC1=O` (single isomer, unassigned) [Example 3.86, 4-[(5R or S)-5-[3-chloro-2-fluoro-5-(trifluoromethyl)phenyl]-5-(trifluoromethyl)-4H-isoxazol-3-yl]-N-[(3S)-1-ethyl-5-oxo-pyrrolidin-3-yl]-2-methyl-benzamide] stands less than 1 µg/mL.
Under `Cc1cc(C2=NOC(c3cc(C(F)(F)F)cc(Cl)c3F)(C(F)(F)F)C2)ccc1C(=O)NCC1(S(C)(=O)=O)CC1` (single isomer, unassigned) [Example 3.83, 2-methyl-N-[(1-methylsulfonylcyclopropyl)methyl]-4-[(5R or S)-5-[3-chloro-2-fluoro-5-(trifluoromethyl)phenyl]-5-(trifluoromethyl)-4H-isoxazol-3-yl]benzamide] stands less than 1 µg/mL.
